Results taken from patent US20250018048A1, “FLUCONAZOLE-COX INHIBITOR HYBRIDS: A DUAL-ACTING CLASS OF ANTIFUNGAL AZOLES” (Ramot at Tel-Aviv University Ltd., priority 2022, published 2025).
≈ marks a conversion by molar mass, not a printed value.

Tests used:
Assay type in all cases: cell-based
[1] = system: erg11ΔΔ/erg3ΔΔ mutant C. albicans; experiment: Growth curve analysis of C. albicans lacking CYP51; conditions: entire range of concentrations (64 to 1 μg/mL), YPAD, 30° C., 48 h
Procedure: (§1) The clinically used FLC and VOR act primarily by preventing ergosterol biosynthesis via inhibition of CYP51. Analysis was done to determine whether fungal growth inhibition by the hybrids required the presence of the ERG11 gene that encodes for CYP51. The antifungal activities of hybrids 1 and 5 and of FLC and VOR were determined against an erg11ΔΔ/erg3ΔΔ mutant C. albicans strain and against C. albicans SN152 from which this double knockout strain was derived (Table S2). […] Yeast growth was followed at OD600 over 48 h in 96-well plates containing serial double dilutions of the tested hybrids.
Cells of erg11ΔΔ/erg3ΔΔ mutant C. albicans were grown in YPAD media at 30° C. and treated with different concentrations of the tested hybrids. Growth was measured by recording the OD600 values every 40 minutes over a 48-h course on an automated plate reader.
Growth curve analyses: Growth curves were determined using the double-dilution method in 96-well plates. Starter cultures were streaked from glycerol stock onto YPAD agar plates and grown for 24 h at 30° C. Colonies were suspended in 1 mL PBS and diluted to 1×10^−3 OD600 and then diluted 1:100 into fresh medium. Hybrids dissolved in DMSO were added to YPAD broth (32 μL stock solution in 1218 μL of YPAD broth), and serial double dilutions of hybrids in YPAD were prepared in flat-bottomed 96-well microplates (Corning) to enable testing of concentrations ranging from 64 μg/mL to 1 μg/mL. Control wells with yeast cells but no drug (100% growth) and blank wells containing only YPAD (0% growth) were prepared. An equal volume (100 μL) of yeast suspensions in YPAD broth was added to each well with the exceptions of the blank wells. Growth was determined at 30° C. by measuring the OD600 using a plate reader (Infinite M200 PRO, Tecan) every 40 minutes over 48 h. Each concentration was tested in triplicate, and results were confirmed by two independent sets of experiments. FLC and VOR were used as control drugs.

[2] = system: C. albicans 742 (erg11ΔΔ/erg3ΔΔ mutant C. albicans strain); experiment: MIC80 broth double-dilution assay, strain lacking CYP51; conditions: YPAD medium, 30° C., 24 h; erg11ΔΔ/erg3ΔΔ mutant lacking CYP51
Procedure: (§2) The antifungal activities of the 24 azole-COX inhibitor hybrids were evaluated against a panel of 16 representative strains of different species of the genus Candida. Candida species cause both superficial and systemic infections. The panel included strains of C. albicans, C. glabrata, C. parapsilosis, C. tropicalis, C. guilliermondii, C. dubliniensis, and C. auris (Table S2). To evaluate antifungal activity, the minimal inhibitory concentration 80% (MIC80) values were determined, which were defined as the lowest drug concentrations with turbidity (measured at OD600) less than or equal to that of specific 1:5 dilutions of the growth control. As controls, FLC and VOR, were tested.
as §1
(§3) C. albicans, C. glabrata, C. parapsilosis, C. guilliermondii, C. tropicalis, and C. dubliniensis MICs were determined using CLSI M27-A3 guidelines with minor modifications. Starter cultures were streaked from glycerol stock onto YPAD agar plates and grown for 24 h at 30° C. Colonies were suspended in 1 mL PBS and diluted to 1×10^−3 OD600 and then diluted 1:100 into fresh medium. Hybrids dissolved in DMSO were added to YPAD broth (32 μL stock solution in 1218 μL of YPAD broth), and serial double dilutions of hybrids in YPAD were prepared in flat-bottomed 96-well microplates (Corning) to enable testing of concentrations ranging from 64 μg/mL to 0.003 μg/mL. Control wells with yeast cells but no drug and blank wells containing only YPAD were prepared. An equal volume (100 μL) of yeast suspensions in YPAD broth was added to each well with the exceptions of the blank wells. MIC values (Tables S4-S6) were determined after 24 h at 30° C. by measuring the OD600 using a plate reader (Infinite M200 PRO, Tecan). MIC values were defined as the point at which the OD600 was reduced by >80% compared to the no-drug wells. Each concentration was tested in triplicate, and results were confirmed by two independent sets of experiments. FLC and VOR were used as control drugs.

C. guilliermondii T-47 = experiment: MIC80 broth double-dilution assay; conditions: YPAD medium, 30° C., 24 h
Procedure: as §2, §3

C. albicans SN152 = experiment: MIC80 broth double-dilution assay; conditions: YPAD medium, 30° C., 24 h; parent strain of the erg11ΔΔ/erg3ΔΔ mutant
Procedure: as §2
(§4) MIC80 values were determined using the broth microdilution method over a concentration range of 0.003-64 μg/mL. Orange circles represent C. albicans strains, yellow circles represent C. glabrata strains, and green circles represent C. parapsilosis, C. tropicalis, C. dubliniensis and C. auris. Cells were grown in YPAD medium at 30° C. (For C. auris strains 37° C.) 24 h. Each concentration was tested in triplicate, and results were confirmed in at least two independent experiments.
as §1, §3

C. albicans P-87 = experiment: MIC80 broth double-dilution assay; conditions: YPAD medium, 30° C., 24 h
Procedure: as §2, §4, §3

[3] = system: C. parapsilosis ATCC 22019; experiment: MIC80 broth double-dilution assay; conditions: YPAD medium, 30° C., 24 h
Procedure: as §2, §4, §3

C. albicans ATCC 90028 = experiment: MIC80 broth double-dilution assay; conditions: YPAD medium, 30° C., 24 h
Procedure: as §2, §4, §3

C. dubliniensis T-99 = experiment: MIC80 broth double-dilution assay; conditions: YPAD medium, 30° C., 24 h
Procedure: as §2, §4, §3

C. albicans SC5314 = experiment: MIC80 broth double-dilution assay; conditions: YPAD medium, 30° C., 24 h
Procedure: as §2, §4, §3

C. tropicalis 660 = experiment: MIC80 broth double-dilution assay; conditions: YPAD medium, 30° C., 24 h
Procedure: as §2, §4, §3

C. albicans ATCC 24433 = experiment: MIC80 broth double-dilution assay; conditions: YPAD medium, 30° C., 24 h
Procedure: as §2, §4, §3

[4] = system: panel of 16 representative strains of different species of the genus Candida; experiment: Antifungal activity (MIC80) against a panel of Candida strains, comparison; conditions: azole-susceptible strains
Procedure: as §2, §4, §3

C. auris ATCC MYA5002 = experiment: MIC broth double-dilution assay with MTT (CLSI M27-A3); conditions: YPAD medium, 37° C., 24 h, growth score 0 or 1
Procedure: (§5) Minimal inhibitory concentration broth double-dilution assay: C. auris minimal inhibitory concentrations (MICs) were determined using CLSI M27-A3 guidelines with minor modifications. Starter cultures were streaked from glycerol stock onto YPAD agar plates and grown for 24 h at 37° C. Colonies were suspended in 1 mL PBS and diluted to 1×10^−3 optical density at 600 nm (OD600) and then diluted 1:100 into fresh medium. hybrids dissolved in DMSO were added to YPAD broth (32 μL stock solution in 1218 μL of YPAD broth), and serial double dilutions of hybrids in YPAD were prepared in flat-bottomed 96-well microplates (Corning) to enable testing of concentrations ranging from 64 μg/mL to 0.007 μg/mL. Control wells with yeast cells but no drug and blank wells containing only YPAD were prepared. An equal volume (100 μL) of yeast suspension in YPAD broth was added to each well with the exceptions of the blank wells. After incubation for 24 h at 37° C., MTT (50 μL of a 1 mg/mL solution in ddH2O) was added to each well followed by additional incubation at 37° C. for 2 h. MIC values (Table S3) were defined as the lowest concentration of an antifungal agent that caused a specified reduction in visible growth as per the CLSI M27-A3 protocol. The magnitude of reduction in visible growth was assessed using the following numerical scale: 0, optically clear; 1, slightly hazy; 2, prominent decrease (˜50%) in visible growth; 3, slight reduction in visible growth; and 4, no reduction in visible growth. The MIC was defined based on reduction in growth to 0 or 1. Results were confirmed in two independent experiments, and each concentration was tested in triplicate. FLC and VOR were used as control drugs.

C. auris ATCC MYA5001 = experiment: as above; conditions: YPAD medium, 37° C., 24 h, growth score 0 or 1
Procedure: as §5

CC(C(=O)O)c1ccc(-c2ccccc2)c(F)c1 (centres unmarked) [flurbiprofen]
Effect on growth (OD600) of the double knockout mutant [1]: Dose-dependent growth reduction

CC(C)Cc1ccc([C@@H](C)C(=O)NC[C@@](O)(Cn2cncn2)c2ccc(F)cc2F)cc1 [Hybrid 3]
MIC80 against C. albicans 742 [2]: 64 µg/mL (≈ 145 µM)
MIC80 against C. guilliermondii T-47 (C. guilliermondii T-47): 1 µg/mL (≈ 2.26 µM)
MIC80 against C. albicans SN152 (C. albicans SN152): 0.06 µg/mL (≈ 0.136 µM)
MIC80 against C. albicans P-87 (C. albicans P-87): 0.03 µg/mL (≈ 0.0678 µM)
MIC80 against C. parapsilosis 22019 [3]: 0.5 µg/mL (≈ 1.13 µM)
MIC80 against C. albicans 90028 (C. albicans ATCC 90028): 0.06 µg/mL (≈ 0.136 µM)
MIC80 against C. dubliniensis T-99 (C. dubliniensis T-99): 1 µg/mL (≈ 2.26 µM)
MIC80 against C. albicans SC5314 (C. albicans SC5314): 0.03 µg/mL (≈ 0.0678 µM)
MIC80 against C. tropicalis 660 (C. tropicalis 660): 1 µg/mL (≈ 2.26 µM)
MIC80 against C. albicans 24433 (C. albicans ATCC 24433): 0.12 µg/mL (≈ 0.271 µM)
Antifungal potency (MIC80) in comparison with FLC, VOR or the corresponding stereoisomer [4]: more potent than the corresponding S-configured ibuprofen hybrid 4

CC(C)Cc1ccc(C(C)C(=O)O)cc1 (centres unmarked) [ibuprofen]
Effect on growth (OD600) of the double knockout mutant [1]: Dose-dependent growth reduction

O=C(NC[C@](O)(Cn1cncn1)c1ccc(F)cc1F)c1cccnc1Nc1cccc(C(F)(F)F)c1 [Hybrid 17]
MIC80 against C. albicans 742 [2]: 16 µg/mL (≈ 30.9 µM)
MIC80 against C. guilliermondii T-47 (C. guilliermondii T-47): 2 µg/mL (≈ 3.86 µM)
MIC80 against C. albicans SN152 (C. albicans SN152): 0.06 µg/mL (≈ 0.116 µM)
MIC80 against C. albicans P-87 (C. albicans P-87): 0.25 µg/mL (≈ 0.482 µM)
MIC80 against C. parapsilosis 22019 [3]: 0.5 µg/mL (≈ 0.964 µM)
MIC80 against C. albicans 90028 (C. albicans ATCC 90028): 0.12 µg/mL (≈ 0.231 µM)
MIC80 against C. dubliniensis T-99 (C. dubliniensis T-99): 2 µg/mL (≈ 3.86 µM)
MIC80 against C. albicans SC5314 (C. albicans SC5314): 0.12 µg/mL (≈ 0.231 µM)
MIC80 against C. tropicalis 660 (C. tropicalis 660): 2 µg/mL (≈ 3.86 µM)
MIC80 against C. albicans 24433 (C. albicans ATCC 24433): 0.12 µg/mL (≈ 0.231 µM)
MIC against C. auris 5002 (C. auris ATCC MYA5002): 4 µg/mL (≈ 7.72 µM)
MIC against C. auris 5001 (C. auris ATCC MYA5001): 0.25 µg/mL (≈ 0.482 µM)

CC(C)Cc1ccc([C@@H](C)C(=O)NC[C@](O)(Cn2cncn2)c2ccc(F)cc2F)cc1 [Hybrid 2]
MIC80 against C. albicans 742 [2]: 64 µg/mL (≈ 145 µM)
MIC80 against C. guilliermondii T-47 (C. guilliermondii T-47): 0.06 µg/mL (≈ 0.136 µM)
MIC80 against C. albicans SN152 (C. albicans SN152): 0.007 µg/mL (≈ 0.0158 µM)
MIC80 against C. albicans P-87 (C. albicans P-87): 0.007 µg/mL (≈ 0.0158 µM)
MIC80 against C. parapsilosis 22019 [3]: 0.015 µg/mL (≈ 0.0339 µM)
MIC80 against C. albicans 90028 (C. albicans ATCC 90028): 0.007 µg/mL (≈ 0.0158 µM)
MIC80 against C. dubliniensis T-99 (C. dubliniensis T-99): 0.12 µg/mL (≈ 0.271 µM)
MIC80 against C. albicans SC5314 (C. albicans SC5314): 0.007 µg/mL (≈ 0.0158 µM)
MIC80 against C. tropicalis 660 (C. tropicalis 660): 0.5 µg/mL (≈ 1.13 µM)
MIC80 against C. albicans 24433 (C. albicans ATCC 24433): 0.015 µg/mL (≈ 0.0339 µM)
Antifungal potency (MIC80) in comparison with FLC, VOR or the corresponding stereoisomer [4]: lowest MIC80 values against all of the azole-susceptible strains
MIC against C. auris 5002 (C. auris ATCC MYA5002): 1 µg/mL (≈ 2.26 µM)
MIC against C. auris 5001 (C. auris ATCC MYA5001): 0.06 µg/mL (≈ 0.136 µM)
